For four molecules, IC50 and MIC results are on record in ChEMBL document CHEMBL4373693, “Virtual Screening Approach and Investigation of Structure-Activity Relationships To Discover Novel Bacterial Topoisomerase Inhibitors Targeting Gram-Positive and Gram-Negative Pathogens” (J Med Chem, 2019).

Structures are written as SMILES. Values after ≈ are worked out from the molar mass of the structure shown.

The target in assay [1] is DNA gyrase subunit A (Staphylococcus aureus, UniProt P20831). Nature of the assay: Inhibition of Staphylococcus aureus ATCC 29213 DNA gyrase A assessed as reduction in enzyme-mediated supercoiling of relaxed pBR322 DNA by ethidium bromide staining based gel electrophoresis method.
DNA gyrase subunit A (Staphylococcus aureus, UniProt P20831), sequence (P20831 whole entry): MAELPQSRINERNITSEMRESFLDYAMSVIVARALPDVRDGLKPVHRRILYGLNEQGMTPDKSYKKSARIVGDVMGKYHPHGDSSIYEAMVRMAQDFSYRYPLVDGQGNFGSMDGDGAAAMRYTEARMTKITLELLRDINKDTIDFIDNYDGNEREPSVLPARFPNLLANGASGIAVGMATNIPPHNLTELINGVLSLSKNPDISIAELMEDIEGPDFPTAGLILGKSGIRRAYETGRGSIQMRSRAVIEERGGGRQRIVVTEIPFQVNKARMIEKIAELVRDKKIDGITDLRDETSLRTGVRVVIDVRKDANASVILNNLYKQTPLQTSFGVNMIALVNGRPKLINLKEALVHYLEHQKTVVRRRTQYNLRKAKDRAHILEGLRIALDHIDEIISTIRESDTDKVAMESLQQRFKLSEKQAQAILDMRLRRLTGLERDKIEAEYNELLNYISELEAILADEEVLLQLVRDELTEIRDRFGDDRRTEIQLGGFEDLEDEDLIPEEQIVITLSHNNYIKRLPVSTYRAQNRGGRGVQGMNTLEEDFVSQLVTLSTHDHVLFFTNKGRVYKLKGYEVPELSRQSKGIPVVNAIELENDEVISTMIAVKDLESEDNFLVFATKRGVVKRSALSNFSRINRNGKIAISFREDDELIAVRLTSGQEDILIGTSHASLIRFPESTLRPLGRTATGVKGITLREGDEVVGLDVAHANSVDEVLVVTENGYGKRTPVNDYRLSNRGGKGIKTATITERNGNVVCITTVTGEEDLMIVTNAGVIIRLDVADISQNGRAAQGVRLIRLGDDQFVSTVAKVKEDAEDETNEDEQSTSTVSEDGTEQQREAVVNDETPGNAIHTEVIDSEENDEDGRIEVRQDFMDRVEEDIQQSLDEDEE
Assay [2] concerns the target DNA gyrase subunit A (Escherichia coli K-12, UniProt P0AES4). Nature of the assay: Inhibition of Escherichia coli ATCC 25922 DNA gyrase A assessed as reduction in enzyme-mediated supercoiling of relaxed pBR322 DNA by ethidium bromide staining based gel electrophoresis method.
Assay [3] addresses DNA topoisomerase 4 subunit A (Staphylococcus aureus, UniProt P0C1U9). Nature of the assay: Inhibition of Staphylococcus aureus ATCC 29213 DNA topoisomerase 4 subunit ParC assessed as reduction in decatenation of kinetoplast DNA incubated for 30 mins by ethidium bromide staining based gel electrophoresis method.
For assay [4], the target named is T1, DNA topoisomerase 4 subunit A (Escherichia coli K-12, UniProt P0AFI2).
T1 sequence (P0AFI2 whole entry): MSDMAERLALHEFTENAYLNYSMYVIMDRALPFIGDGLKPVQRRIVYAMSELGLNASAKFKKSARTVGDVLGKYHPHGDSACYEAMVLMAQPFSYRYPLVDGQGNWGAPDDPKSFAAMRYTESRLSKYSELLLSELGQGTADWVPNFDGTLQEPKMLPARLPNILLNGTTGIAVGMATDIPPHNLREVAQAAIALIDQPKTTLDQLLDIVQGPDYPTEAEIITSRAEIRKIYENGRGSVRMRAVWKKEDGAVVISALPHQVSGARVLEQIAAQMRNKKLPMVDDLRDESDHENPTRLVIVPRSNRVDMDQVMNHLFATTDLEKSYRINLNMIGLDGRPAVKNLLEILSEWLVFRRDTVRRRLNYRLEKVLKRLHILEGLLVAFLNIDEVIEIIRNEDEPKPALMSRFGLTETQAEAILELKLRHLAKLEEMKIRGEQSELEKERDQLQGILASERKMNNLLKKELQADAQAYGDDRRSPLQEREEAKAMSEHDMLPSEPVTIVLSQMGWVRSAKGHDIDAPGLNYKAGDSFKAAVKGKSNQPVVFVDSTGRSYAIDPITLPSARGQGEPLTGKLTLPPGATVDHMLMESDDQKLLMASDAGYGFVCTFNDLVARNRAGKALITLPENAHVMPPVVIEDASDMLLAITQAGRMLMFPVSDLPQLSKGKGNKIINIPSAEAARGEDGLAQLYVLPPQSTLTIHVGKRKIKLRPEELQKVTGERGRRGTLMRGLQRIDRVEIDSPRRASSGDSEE
Nature of the assay: Inhibition of Escherichia coli ATCC 25922 DNA topoisomerase 4 subunit ParC assessed as reduction in decatenation of kinetoplast DNA incubated for 30 mins by ethidium bromide staining based gel electrophoresis method.

Another assay relates to Pseudomonas aeruginosa. Briefly: Antibacterial activity against Pseudomonas aeruginosa ATCC 27853 after 16 to 24 hrs by CLSI method. The class given is functional.
The subject of assay [5] is Staphylococcus aureus. Briefly: Antibacterial activity against Staphylococcus aureus ATCC 29213 after 16 to 24 hrs by broth microdilution method. It counts as functional.
A further assay concerns Escherichia coli. Briefly: Antibacterial activity against Escherichia coli ATCC 25922 after 16 to 24 hrs by broth microdilution method. The class given is functional.
Assay [6] relates to Staphylococcus aureus. Nature of the assay: Antibacterial activity against Staphylococcus aureus BAA-1720 after 16 to 24 hrs by broth microdilution method. It counts as functional.

DNA topoisomerase 4 subunit A (Staphylococcus aureus, UniProt P0C1U9), sequence (P0C1U9 whole entry): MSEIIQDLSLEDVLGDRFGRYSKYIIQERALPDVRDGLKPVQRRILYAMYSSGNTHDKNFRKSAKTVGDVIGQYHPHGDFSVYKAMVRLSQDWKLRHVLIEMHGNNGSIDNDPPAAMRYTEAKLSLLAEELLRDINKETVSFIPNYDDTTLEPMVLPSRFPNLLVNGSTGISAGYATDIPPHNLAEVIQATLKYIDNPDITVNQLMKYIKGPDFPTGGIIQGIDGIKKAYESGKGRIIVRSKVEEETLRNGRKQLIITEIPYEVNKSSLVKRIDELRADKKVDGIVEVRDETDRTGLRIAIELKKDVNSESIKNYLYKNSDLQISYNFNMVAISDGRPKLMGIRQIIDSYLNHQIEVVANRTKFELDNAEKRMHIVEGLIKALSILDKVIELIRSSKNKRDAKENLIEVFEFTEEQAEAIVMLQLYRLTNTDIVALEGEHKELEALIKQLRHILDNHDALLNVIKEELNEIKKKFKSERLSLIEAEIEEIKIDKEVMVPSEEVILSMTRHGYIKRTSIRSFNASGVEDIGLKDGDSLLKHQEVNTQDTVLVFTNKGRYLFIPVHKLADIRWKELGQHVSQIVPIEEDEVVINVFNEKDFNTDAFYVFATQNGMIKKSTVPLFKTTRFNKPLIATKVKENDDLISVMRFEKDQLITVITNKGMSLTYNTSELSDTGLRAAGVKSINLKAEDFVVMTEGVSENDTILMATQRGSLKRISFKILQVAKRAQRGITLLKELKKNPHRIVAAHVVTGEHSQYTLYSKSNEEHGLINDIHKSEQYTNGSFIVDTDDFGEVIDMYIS
DNA gyrase subunit A (Escherichia coli K-12, UniProt P0AES4), sequence (P0AES4 whole entry): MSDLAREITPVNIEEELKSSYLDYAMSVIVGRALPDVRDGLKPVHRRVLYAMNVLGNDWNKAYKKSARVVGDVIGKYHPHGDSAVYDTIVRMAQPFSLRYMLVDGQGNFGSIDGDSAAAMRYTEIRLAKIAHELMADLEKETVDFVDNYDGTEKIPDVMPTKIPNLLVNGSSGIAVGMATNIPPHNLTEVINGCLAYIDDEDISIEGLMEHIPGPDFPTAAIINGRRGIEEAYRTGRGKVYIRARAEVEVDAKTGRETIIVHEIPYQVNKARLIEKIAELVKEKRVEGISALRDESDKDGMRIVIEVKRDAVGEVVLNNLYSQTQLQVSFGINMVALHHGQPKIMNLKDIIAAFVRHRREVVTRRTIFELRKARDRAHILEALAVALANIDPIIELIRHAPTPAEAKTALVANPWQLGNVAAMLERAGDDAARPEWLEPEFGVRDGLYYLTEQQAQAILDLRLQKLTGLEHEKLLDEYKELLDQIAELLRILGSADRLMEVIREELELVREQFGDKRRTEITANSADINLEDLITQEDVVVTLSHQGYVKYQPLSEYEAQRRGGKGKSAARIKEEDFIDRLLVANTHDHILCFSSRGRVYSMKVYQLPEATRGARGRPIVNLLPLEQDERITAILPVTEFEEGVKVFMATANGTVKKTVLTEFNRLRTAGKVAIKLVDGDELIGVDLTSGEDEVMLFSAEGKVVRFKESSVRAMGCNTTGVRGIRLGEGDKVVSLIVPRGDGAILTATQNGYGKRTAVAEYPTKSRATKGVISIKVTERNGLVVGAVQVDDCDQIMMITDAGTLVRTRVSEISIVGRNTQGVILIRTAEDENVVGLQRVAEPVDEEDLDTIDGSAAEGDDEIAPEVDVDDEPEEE

For `O=c1cc(NCCCN2CCN(c3nccc4ccccc34)CC2)c2ccccc2o1`, the IC50 on DNA gyrase subunit A [1] amounted to 14000 nM; at DNA gyrase subunit A [2], 500 nM; in assay [3], 90000 nM; in assay [4], 10000 nM. Besides, the minimum inhibitory concentration (MIC) with Pseudomonas aeruginosa was over 32 µg/mL; in the assay on Staphylococcus aureus [5], over 32 µg/mL; with Escherichia coli, 4 µg/mL (≈ 9.65 µM); against Staphylococcus aureus [6], over 32 µg/mL.
As for `N#Cc1ccc2ccnc(N3CCN(CCCNc4cc(=O)oc5ccccc45)CC3)c2c1`, the IC50 amounted to 6800 nM on DNA gyrase subunit A [1], 2300 nM on DNA gyrase subunit A [2], 5100 nM in assay [3] and 1700 nM in assay [4]. For the same molecule, the MIC in the assay on Pseudomonas aeruginosa was over 8 µg/mL; against Staphylococcus aureus [5] it was 8 µg/mL (≈ 18.2 µM); with Escherichia coli it was 2 µg/mL (≈ 4.55 µM); with Staphylococcus aureus [6] it was 4 µg/mL (≈ 9.1 µM).
`O=c1cc(NCCCN2CCN(c3nccc4ccc(Cl)cc34)CC2)c2ccccc2o1`: the IC50 is 4500 nM at DNA gyrase subunit A [1], 900 nM on DNA gyrase subunit A [2], 5600 nM in assay [3] and 2400 nM in assay [4]. Besides, the MIC against Pseudomonas aeruginosa was 8 µg/mL (≈ 17.8 µM); against Staphylococcus aureus [5], 4 µg/mL (≈ 8.91 µM); with Escherichia coli, 2 µg/mL (≈ 4.45 µM); against Staphylococcus aureus [6] it was 2 µg/mL (≈ 4.45 µM).
For `O=c1cc(CC(O)CCN2CCN(c3nccc4ccc(F)cc34)CC2)c2ccccc2o1` (racemic), the half-inhibitory concentration (IC50) was 800 nM at DNA gyrase subunit A [1], 2800 nM at DNA gyrase subunit A [2], 1700 nM in assay [3] and 2500 nM in assay [4]. Moreover, the MIC in the assay with Pseudomonas aeruginosa is over 8 µg/mL; against Staphylococcus aureus [5] it was 1 µg/mL (≈ 2.23 µM); with Escherichia coli it was 8 µg/mL (≈ 17.9 µM); in the assay on Staphylococcus aureus [6], 4 µg/mL (≈ 8.94 µM).
